From publication PMC11851451 (2025) come the findings set out here.

Test [1] has as its system AATT hairpin, 5'-biotin (SPR) (DNA, hairpin) CGAAATTGCCTCTGCAATTCG
The experiment in a line: biosensor SPR, steady-state one-site fit. The conditions noted are these: Na+ 100 mM (Table 1 note 10 mM), 50 mM Tris-HCl, 1 mM EDTA.

Test [2] relates to TTAA hairpin (ESI-MS, CD) (DNA, hairpin) CGTTAAGCTTTCTTAACG
The experiment in a line: circular dichroism titration. The note with it: Na+ 100 mM; 50 mM Tris-HCl, 1 mM EDTA, pH 7.4, 25 °C; DNA 5 μM. (CD spectra are sensitive to the conformation of chiral molecules.)

Test [3] shares this test system. The experiment in a line: competition ESI-MS. The conditions noted are these: NH4+ 100 mM (ammonium acetate); 10% methanol, pH 6.8; AATT and TTAA 10 μM each, compound 20 μM.
The subject of test [4] is TTAA hairpin, 5'-biotin (SPR) (DNA, hairpin) CGTTAAGCTTTCTTAACG
Description: biosensor SPR, steady-state fit. The note with it: Na+ 100 mM (Table 1 note 10 mM); 50 mM Tris-HCl, 1 mM EDTA, 0.05% P20, pH 7.4.

In test [5] the test system is TATA hairpin, 5'-biotin (SPR) (DNA, hairpin) CCTATAGTTTTCTATAGG
The experiment in a line: biosensor SPR, steady-state fit. The conditions noted are these: Na+ 100 mM (Table 1 note 10 mM); 50 mM Tris-HCl, 1 mM EDTA, 0.05% P20, pH 7.4.

The test system of test [6] is AATT hairpin (ESI-MS, CD) (DNA, hairpin) CGAAATTGCCTCTGCAATTCG
Description: competition ESI-MS. The note with it: NH4+ 100 mM (ammonium acetate); 10% methanol, pH 6.8; AATT and TTAA 10 μM each, compound 20 μM.

The test system of test [7] is d(5'-GCTGCGTTAACGCAGC-3')2 (DNA, duplex) GCTGCGTTAACGCAGC
The experiment in a line: X-ray crystallography, low resolution. The conditions noted are these: antiparallel stacked dimer in minor groove; not deposited.

Test [8] has the same test system. Description: X-ray crystallography, 1.5 Å. The conditions noted are these: Ca2+ 600 mM (CaCl2, well); HEPES, PEG 400; antiparallel stacked dimer in minor groove.
In test [9] the test system is TATA hairpin, 5'-biotin (SPR) (DNA, hairpin) CCTATAGTTTTCTATAGG
The experiment in a line: biosensor SPR. The note with it: Na+ 100 mM (Table 1 note 10 mM); printed as 'Very weak binder'; 50 mM Tris-HCl, 1 mM EDTA, 0.05% P20, pH 7.4; up to 1000 nM.

The test system of test [10] is AATT hairpin, 5'-biotin (SPR) (DNA, hairpin) CGAAATTGCCTCTGCAATTCG
The experiment in a line: biosensor SPR, one-site kinetic fit. The conditions noted are these: Na+ 100 mM (Table 1 note 10 mM); 50 mM Tris-HCl, 1 mM EDTA, 0.05% P20, pH 7.4.

Test [11] concerns TATA hairpin, 5'-biotin (SPR) (DNA, hairpin) CCTATAGTTTTCTATAGG
Description: biosensor SPR, steady-state two-site fit. The conditions noted are these: Na+ 100 mM; 50 mM Tris-HCl, 1 mM EDTA, pH 7.4; site 1 of 2; KA2 2.6 × 10^6; Table 1 KA 4.2 × 10^6.

In test [12] the test system is TTAA hairpin, 5'-biotin (SPR) (DNA, hairpin) CGTTAAGCTTTCTTAACG
Description: biosensor SPR, steady-state two-site fit. The conditions noted are these: Na+ 100 mM; 50 mM Tris-HCl, 1 mM EDTA, pH 7.4; site 1 of 2; KA2 5.5 × 10^6; Table 1 KA 6.9 × 10^6.

The test system of test [13] is AATT hairpin, 5'-biotin (SPR) (DNA, hairpin) CGAAATTGCCTCTGCAATTCG
The experiment in a line: biosensor SPR, one-site fit. The note with it: Na+ 100 mM (Table 1 note 10 mM); 50 mM Tris-HCl, 1 mM EDTA, 0.05% P20, pH 7.4.

For `N=C(N)c1ccc2cc(-c3ccc(-c4ccc(C(=N)N)s4)o3)[nH]c2c1`, the KA in [1] (0.05% P20, pH 7.4) worked out at 6.5e+06 M⁻¹. Moreover, the binding result in [2] is “yes”.
With `N=C(N)c1ccc2nc(-c3ccc(-c4ccc(C(=N)N)o4)s3)[nH]c2c1`, the KA in test [1] (0.05% P20, pH 7.4 buffer, text b17 prints 3.0 × 10^7) was found to be 3.5e+07 M⁻¹; in test [4], 1e+06 M⁻¹; in [5], 700000 M⁻¹. The binding result in test [3] was “weak”; in test [6], “yes”; in test [2] it was “yes”.
Consider `N=C(N)c1ccc2[nH]c(-c3ccc(-c4ccc(C(=N)N)o4)o3)nc2c1`, for which the KA in test [1] (0.05% P20, pH 7.4) amounted to 2.1e+06 M⁻¹. Moreover, the binding result in [3], in test [2] and in test [7] was “yes” throughout.
Consider `N=C(N)c1ccc2cc(-c3ccc(-c4ccc(C(=N)N)o4)s3)[nH]c2c1`, for which the KA came out at 6.7e+07 M⁻¹ in test [1] (0.05% P20, pH 7.4); 2.8e+06 M⁻¹ in [4]; 5.2e+06 M⁻¹ in test [5].
In turn, `N=C(N)c1ccc2[nH]c(-c3ccc(-c4ccc(C(=N)N)s4)o3)nc2c1` had a KA in test [1] (0.05% P20, pH 7.4) of 6.2e+06 M⁻¹. Moreover, the binding result is “yes” in test [3], “yes” in test [8], “weak” in [6] and “yes” in test [2].
`N=C(N)c1ccc2cc(-c3ccc(-c4ccc(C(=N)N)o4)o3)[nH]c2c1`: the KA in [1] (0.05% P20, pH 7.4) was determined as 7.3e+06 M⁻¹. The binding result in test [2] is “yes”.
On to `N=C(N)c1ccc2[nH]c(-c3ccc(-c4ccc(C(=N)N)s4)s3)nc2c1`, for which the binding result in test [3] is “weak”; in test [9] it was “weak”; in test [6], “yes”; in [2] it was “yes”. Further, the results for the KA in [4] and in test [10] were 1.6e+06 M⁻¹ and 2.4e+08 M⁻¹, respectively.
Consider `N=C(N)c1ccc2cc(-c3ccc(-c4ccc(C(=N)N)s4)s3)[nH]c2c1`, for which the KA1 was found to be 6.9e+06 M⁻¹ in [11] and 8.8e+06 M⁻¹ in test [12]. For the same compound, the KA in test [13] stood at 1.5e+08 M⁻¹.
